Measured values published in ChEMBL document CHEMBL5696441 (Nat Chem Biol, 2011).

Legend:
[1] = molecular target: Ribosomal protein S6 kinase alpha-6 (Homo sapiens) (UniProt Q9UK32); experiment: Inhibition of human RPS6KA6 assessed as residual activity at 1 uM using RBER-GSK3(14-27) as substrate in presence of 33P-ATP by ProQinase assay relative to control
[2] = molecular target: Beta-adrenergic receptor kinase 1 (Homo sapiens) (UniProt P25098); experiment: Inhibition of human GRK2 assessed as residual activity at 1 uM using casein as substrate in presence of 33P-ATP by ProQinase assay relative to control
[3] = molecular target: Dual specificity protein kinase CLK1 (Homo sapiens) (UniProt P49759); experiment: Inhibition of CLK1 (unknown origin) assessed as remaining activity at 1 uM by Kinome scan method relative to control
[4] = molecular target: Cyclin-dependent kinase-like 2 (Homo sapiens) (UniProt Q92772); experiment: Inhibition of CDKL2 (unknown origin) assessed as remaining activity at 1 uM by Kinome scan method relative to control
[5] = molecular target: Protein kinase C zeta type (Homo sapiens) (UniProt Q05513); experiment: Inhibition of human PKCzeta assessed as residual activity at 1 uM using 3xChocktide-PKC(19-31) as substrate in presence of 33P-ATP by ProQinase assay relative to control
[6] = molecular target: MAP kinase-interacting serine/threonine-protein kinase 1 (Homo sapiens) (UniProt Q9BUB5); experiment: Inhibition of MKNK1 (unknown origin) assessed as remaining activity at 1 uM by Kinome scan method relative to control
[7] = molecular target: STE20-like serine/threonine-protein kinase (Homo sapiens) (UniProt Q9H2G2); experiment: Inhibition of human SLK assessed as residual activity at 1 uM using RB-S6P as substrate in presence of 33P-ATP by ProQinase assay relative to control
[8] = molecular target: Mast/stem cell growth factor receptor Kit (Homo sapiens) (UniProt P10721); experiment: Inhibition of KIT (unknown origin) assessed as remaining activity at 1 uM by Kinome scan method relative to control
[9] = molecular target: Serine/threonine-protein kinase PAK 3 (Homo sapiens) (UniProt O75914); experiment: Inhibition of human PAK3 assessed as residual activity at 1 uM using bio-4xCHKT as substrate in presence of 33P-ATP by ProQinase assay relative to control
[10] = molecular target: Tyrosine-protein kinase ZAP-70 (Homo sapiens) (UniProt P43403); experiment: Inhibition of human ZAP70 assessed as residual activity at 1 uM using polyEY as substrate in presence of 33P-ATP by ProQinase assay relative to control
[11] = molecular target: RAC-gamma serine/threonine-protein kinase (Homo sapiens) (UniProt Q9Y243); experiment: Inhibition of human AKT3 assessed as residual activity at 1 uM using RBER-GSK3(14-27) as substrate in presence of 33P-ATP by ProQinase assay relative to control
[12] = molecular target: Serine/threonine-protein kinase 24 (Homo sapiens) (UniProt Q9Y6E0); experiment: Inhibition of MST3 (unknown origin) assessed as remaining activity at 1 uM by Kinome scan method relative to control
[13] = molecular target: G protein-coupled receptor kinase 4 (Homo sapiens) (UniProt P32298); experiment: Inhibition of human GRK4 assessed as residual activity at 1 uM using casein as substrate in presence of 33P-ATP by ProQinase assay relative to control
[14] = molecular target: Activin receptor type-1 (Homo sapiens) (UniProt Q04771); experiment: Inhibition of human ACVR1 assessed as residual activity at 1 uM using RBER-GSK3(14-27) as substrate in presence of 33P-ATP by ProQinase assay relative to control
[15] = molecular target: Mitogen-activated protein kinase kinase kinase kinase 5 (Homo sapiens) (UniProt Q9Y4K4); experiment: Inhibition of MAP4K5 (unknown origin) assessed as remaining activity at 1 uM by Kinome scan method relative to control
[16] = molecular target: Tyrosine-protein kinase ABL2 (Homo sapiens) (UniProt P42684); experiment: Inhibition of human ABL2 assessed as residual activity at 1 uM using Poly(Ala,Glu,Lys,Tyr)6:2:5:1 as substrate in presence of 33P-ATP by ProQinase assay relative to control
[17] = molecular target: Serine/threonine-protein kinase 4 (Homo sapiens) (UniProt Q13043); experiment: Inhibition of MST1 (unknown origin) assessed as remaining activity at 1 uM by Kinome scan method relative to control
[18] = molecular target: 5'-AMP-activated protein kinase catalytic subunit alpha-1 (Homo sapiens) (UniProt Q13131); experiment: Inhibition of human AMPKalpha1 assessed as residual activity at 1 uM using RBER-CHKtide as substrate in presence of 33P-ATP by ProQinase assay relative to control
[19] = molecular target: Serine/threonine-protein kinase NIM1 (Homo sapiens) (UniProt Q8IY84); experiment: Inhibition of NIM1 (unknown origin) assessed as remaining activity at 1 uM by Kinome scan method relative to control
[20] = molecular target: Homeodomain-interacting protein kinase 2 (Homo sapiens) (UniProt Q9H2X6); experiment: Inhibition of HIPK2 (unknown origin) assessed as remaining activity at 1 uM by Kinome scan method relative to control
[21] = molecular target: Serine/threonine-protein kinase VRK1 (Homo sapiens) (UniProt Q99986); experiment: Inhibition of human VRK1 assessed as residual activity at 1 uM using RBER-CHKtide as substrate in presence of 33P-ATP by ProQinase assay relative to control
[22] = molecular target: Tyrosine-protein kinase JAK1 (Homo sapiens) (UniProt P23458); experiment: Inhibition of JAK1 JH1 domain (unknown origin) assessed as remaining activity at 1 uM by Kinome scan method relative to control
[23] = molecular target: Ephrin type-B receptor 2 (Homo sapiens) (UniProt P29323); experiment: Inhibition of human EPHB2 assessed as residual activity at 1 uM using poly(Ala,Glu,Lys,Tyr)6:2:5:1 as substrate in presence of 33P-ATP by ProQinase assay relative to control
[24] = molecular target: STE20/SPS1-related proline-alanine-rich protein kinase (Homo sapiens) (UniProt Q9UEW8); experiment: Inhibition of human STK39 assessed as residual activity at 1 uM using RBER-CDC25tide as substrate in presence of 33P-ATP by ProQinase assay relative to control
[25] = molecular target: High affinity nerve growth factor receptor (Homo sapiens) (UniProt P04629); experiment: Inhibition of human TRKA assessed as residual activity at 1 uM using PolyEY as substrate in presence of 33P-ATP by ProQinase assay relative to control
[26] = Anti-inflammatory activity against human derived medium respond PBMC cells assessed as inhibition in stimulated TNF-alpha cytokine release incubated for 2 hrs in the presence of LPS/SEB/aCD28 by Luminex based sandwich immunoassay; assay type: functional, cell-based
[27] = molecular target: Focal adhesion kinase 1 (Homo sapiens) (UniProt Q05397); experiment: Inhibition of human FAK (2 to 1052 residues) assessed as residual activity at 1 uM using polyEY as substrate in presence of 33P-ATP by ProQinase assay relative to control

Chain of Tyrosine-protein kinase ABL2 (Homo sapiens) (P42684 whole entry): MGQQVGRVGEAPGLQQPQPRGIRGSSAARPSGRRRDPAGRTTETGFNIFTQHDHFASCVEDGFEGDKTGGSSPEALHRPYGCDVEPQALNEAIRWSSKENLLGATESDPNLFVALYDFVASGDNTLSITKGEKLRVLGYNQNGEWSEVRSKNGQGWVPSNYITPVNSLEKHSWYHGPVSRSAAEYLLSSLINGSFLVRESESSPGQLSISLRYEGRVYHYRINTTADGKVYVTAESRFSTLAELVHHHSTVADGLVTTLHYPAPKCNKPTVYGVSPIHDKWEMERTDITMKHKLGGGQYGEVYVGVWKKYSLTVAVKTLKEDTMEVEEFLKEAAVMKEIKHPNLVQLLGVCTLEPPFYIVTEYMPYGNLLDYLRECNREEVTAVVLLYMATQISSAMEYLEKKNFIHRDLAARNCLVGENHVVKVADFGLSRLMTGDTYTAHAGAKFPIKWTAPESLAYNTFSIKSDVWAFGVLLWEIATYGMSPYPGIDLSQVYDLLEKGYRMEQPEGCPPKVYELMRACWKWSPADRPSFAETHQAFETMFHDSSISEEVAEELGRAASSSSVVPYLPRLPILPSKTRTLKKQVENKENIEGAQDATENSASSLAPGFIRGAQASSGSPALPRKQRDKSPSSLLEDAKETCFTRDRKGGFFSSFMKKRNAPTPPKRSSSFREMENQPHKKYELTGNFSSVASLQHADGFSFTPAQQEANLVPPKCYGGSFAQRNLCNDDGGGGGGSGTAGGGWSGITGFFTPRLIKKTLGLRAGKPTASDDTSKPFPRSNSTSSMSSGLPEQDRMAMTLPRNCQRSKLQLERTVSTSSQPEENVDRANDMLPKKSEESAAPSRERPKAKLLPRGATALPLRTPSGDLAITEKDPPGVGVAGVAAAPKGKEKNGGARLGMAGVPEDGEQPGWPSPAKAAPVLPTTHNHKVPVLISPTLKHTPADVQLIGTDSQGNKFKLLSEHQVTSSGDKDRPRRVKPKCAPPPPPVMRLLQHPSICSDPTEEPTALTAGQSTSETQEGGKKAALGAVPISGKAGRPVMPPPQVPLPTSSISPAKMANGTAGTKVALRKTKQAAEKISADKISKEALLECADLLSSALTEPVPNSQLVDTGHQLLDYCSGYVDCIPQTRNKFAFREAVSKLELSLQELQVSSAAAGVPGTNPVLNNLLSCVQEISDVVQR
Chain of RAC-gamma serine/threonine-protein kinase (Homo sapiens) (Q9Y243 whole entry): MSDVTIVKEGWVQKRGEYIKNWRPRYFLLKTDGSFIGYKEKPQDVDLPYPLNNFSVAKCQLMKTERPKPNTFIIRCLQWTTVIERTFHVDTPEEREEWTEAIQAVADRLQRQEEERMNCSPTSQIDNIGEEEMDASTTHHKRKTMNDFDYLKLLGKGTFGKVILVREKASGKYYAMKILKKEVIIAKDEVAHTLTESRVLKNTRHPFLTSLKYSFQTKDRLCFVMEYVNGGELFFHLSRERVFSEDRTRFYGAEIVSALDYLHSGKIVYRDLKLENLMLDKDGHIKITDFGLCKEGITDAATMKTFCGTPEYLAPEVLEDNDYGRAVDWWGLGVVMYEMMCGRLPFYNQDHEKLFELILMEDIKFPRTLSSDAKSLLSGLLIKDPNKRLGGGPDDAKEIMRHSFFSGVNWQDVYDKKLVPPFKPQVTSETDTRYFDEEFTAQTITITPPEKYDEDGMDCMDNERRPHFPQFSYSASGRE
Chain of Serine/threonine-protein kinase 24 (Homo sapiens) (Q9Y6E0 whole entry, looked up): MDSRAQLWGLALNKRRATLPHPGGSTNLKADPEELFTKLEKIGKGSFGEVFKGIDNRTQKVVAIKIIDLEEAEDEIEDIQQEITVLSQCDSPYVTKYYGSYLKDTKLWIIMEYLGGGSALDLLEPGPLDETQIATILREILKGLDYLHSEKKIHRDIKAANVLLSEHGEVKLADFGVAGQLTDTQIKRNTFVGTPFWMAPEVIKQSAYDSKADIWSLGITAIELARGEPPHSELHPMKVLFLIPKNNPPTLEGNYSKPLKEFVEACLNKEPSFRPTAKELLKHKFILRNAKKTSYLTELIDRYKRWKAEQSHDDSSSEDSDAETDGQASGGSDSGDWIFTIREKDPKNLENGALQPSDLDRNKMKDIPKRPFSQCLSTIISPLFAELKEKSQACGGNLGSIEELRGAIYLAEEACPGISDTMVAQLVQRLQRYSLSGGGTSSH
Chain of High affinity nerve growth factor receptor (Homo sapiens) (P04629 33-796 limits assumed): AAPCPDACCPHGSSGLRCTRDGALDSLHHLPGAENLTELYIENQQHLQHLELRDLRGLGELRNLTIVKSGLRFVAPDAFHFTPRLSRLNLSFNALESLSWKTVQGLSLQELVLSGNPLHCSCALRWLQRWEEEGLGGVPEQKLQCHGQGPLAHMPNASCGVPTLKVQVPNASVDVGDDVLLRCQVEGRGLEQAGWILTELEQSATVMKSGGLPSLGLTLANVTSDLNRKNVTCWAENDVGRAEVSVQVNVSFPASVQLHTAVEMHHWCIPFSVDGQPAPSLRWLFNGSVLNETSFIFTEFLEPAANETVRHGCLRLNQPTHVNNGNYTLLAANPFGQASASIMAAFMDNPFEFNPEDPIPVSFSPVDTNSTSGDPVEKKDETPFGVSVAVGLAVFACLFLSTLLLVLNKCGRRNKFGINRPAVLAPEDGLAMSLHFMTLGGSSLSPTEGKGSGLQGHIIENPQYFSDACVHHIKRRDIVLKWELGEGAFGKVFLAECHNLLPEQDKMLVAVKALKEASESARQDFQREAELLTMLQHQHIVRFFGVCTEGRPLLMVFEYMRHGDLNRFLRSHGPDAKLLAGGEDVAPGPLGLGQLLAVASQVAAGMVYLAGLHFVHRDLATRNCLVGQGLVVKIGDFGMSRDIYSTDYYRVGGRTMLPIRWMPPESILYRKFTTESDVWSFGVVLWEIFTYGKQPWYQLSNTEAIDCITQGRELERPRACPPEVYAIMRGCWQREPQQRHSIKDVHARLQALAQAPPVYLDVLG
Chain of Serine/threonine-protein kinase NIM1 (Homo sapiens) (Q8IY84 whole entry): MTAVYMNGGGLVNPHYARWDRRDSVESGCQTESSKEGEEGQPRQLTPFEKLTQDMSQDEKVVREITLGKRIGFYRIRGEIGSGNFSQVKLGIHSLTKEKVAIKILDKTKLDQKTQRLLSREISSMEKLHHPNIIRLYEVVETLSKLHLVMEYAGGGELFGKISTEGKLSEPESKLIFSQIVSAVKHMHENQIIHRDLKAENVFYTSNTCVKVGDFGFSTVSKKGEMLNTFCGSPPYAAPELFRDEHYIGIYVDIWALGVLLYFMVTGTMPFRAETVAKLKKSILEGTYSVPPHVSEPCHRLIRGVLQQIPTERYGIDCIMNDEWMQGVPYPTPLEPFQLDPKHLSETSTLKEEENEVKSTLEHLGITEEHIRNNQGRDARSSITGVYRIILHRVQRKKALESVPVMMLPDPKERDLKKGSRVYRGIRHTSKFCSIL
Chain of Serine/threonine-protein kinase 4 (Homo sapiens) (Q13043 whole entry): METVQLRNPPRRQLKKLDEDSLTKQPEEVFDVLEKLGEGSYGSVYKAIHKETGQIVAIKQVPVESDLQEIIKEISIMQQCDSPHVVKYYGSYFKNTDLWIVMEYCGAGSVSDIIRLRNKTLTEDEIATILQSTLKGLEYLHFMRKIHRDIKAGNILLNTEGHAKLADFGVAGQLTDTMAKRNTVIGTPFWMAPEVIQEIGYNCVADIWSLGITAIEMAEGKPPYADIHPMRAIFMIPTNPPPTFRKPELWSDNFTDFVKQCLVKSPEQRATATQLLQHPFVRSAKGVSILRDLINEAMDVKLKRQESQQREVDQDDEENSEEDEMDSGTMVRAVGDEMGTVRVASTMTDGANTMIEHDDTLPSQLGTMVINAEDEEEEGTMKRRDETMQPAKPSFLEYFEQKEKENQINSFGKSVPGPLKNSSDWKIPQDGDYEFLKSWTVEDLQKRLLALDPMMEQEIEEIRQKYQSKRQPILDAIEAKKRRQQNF
Chain of Serine/threonine-protein kinase PAK 3 (Homo sapiens) (O75914 whole entry, looked up): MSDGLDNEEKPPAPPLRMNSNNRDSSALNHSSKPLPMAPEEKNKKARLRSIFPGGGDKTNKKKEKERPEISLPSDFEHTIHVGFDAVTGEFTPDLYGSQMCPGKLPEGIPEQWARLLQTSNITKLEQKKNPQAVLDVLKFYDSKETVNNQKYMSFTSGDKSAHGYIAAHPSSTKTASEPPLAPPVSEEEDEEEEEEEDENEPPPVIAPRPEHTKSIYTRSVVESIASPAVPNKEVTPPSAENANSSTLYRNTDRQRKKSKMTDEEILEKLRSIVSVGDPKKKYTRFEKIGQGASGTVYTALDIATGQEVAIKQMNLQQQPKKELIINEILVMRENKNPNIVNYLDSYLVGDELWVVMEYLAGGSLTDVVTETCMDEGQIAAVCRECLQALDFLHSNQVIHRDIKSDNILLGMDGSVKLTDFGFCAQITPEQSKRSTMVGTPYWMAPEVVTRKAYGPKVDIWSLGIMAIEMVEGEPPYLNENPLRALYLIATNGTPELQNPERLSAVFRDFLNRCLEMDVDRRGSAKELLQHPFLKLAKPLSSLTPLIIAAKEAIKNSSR
Chain of 5'-AMP-activated protein kinase catalytic subunit alpha-1 (Homo sapiens) (Q13131 whole entry, looked up): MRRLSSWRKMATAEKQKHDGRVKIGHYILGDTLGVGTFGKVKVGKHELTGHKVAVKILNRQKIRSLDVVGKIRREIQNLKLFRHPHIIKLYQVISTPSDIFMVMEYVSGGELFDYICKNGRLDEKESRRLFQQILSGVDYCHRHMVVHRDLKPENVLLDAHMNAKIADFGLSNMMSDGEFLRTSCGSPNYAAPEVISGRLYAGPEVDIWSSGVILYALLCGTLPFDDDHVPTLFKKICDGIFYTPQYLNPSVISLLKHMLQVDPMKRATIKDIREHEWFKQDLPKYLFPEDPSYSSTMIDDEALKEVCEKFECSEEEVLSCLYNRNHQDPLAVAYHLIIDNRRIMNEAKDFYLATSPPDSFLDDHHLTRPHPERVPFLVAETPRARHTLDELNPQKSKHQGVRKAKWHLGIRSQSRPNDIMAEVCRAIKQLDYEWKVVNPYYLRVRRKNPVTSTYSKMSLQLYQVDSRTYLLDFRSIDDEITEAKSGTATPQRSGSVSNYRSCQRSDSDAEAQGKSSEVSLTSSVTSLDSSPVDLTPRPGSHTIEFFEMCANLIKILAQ

`O=C1c2ccc(Nc3ccc(F)cc3F)cc2CCc2ccc(OC[C@H](O)CO)cc21` [Skepinone-L] gave an Activity [1] of 85%, an Activity [2] of 83% and an Activity [3] of 99%. The Activity [4] was 100%, the Activity [5] was 109% and the Activity [6] was 99%. The Activity [7] was 39%, the Activity [8] was 93% and the Activity [9] was 107%. The Activity [10] was 98%, the Activity [11] was 94% and the Activity [12] was 100%. The Activity [13] was 100%, the Activity [14] was 94% and the Activity [15] was 100%. For the same compound, the Activity [16] was 99%, the Activity [17] was 100% and the Activity [18] was 84%. For the same compound, the Activity [19] was 100%, the Activity [20] was 100% and the Activity [21] was 88%. For the same compound, the Activity [22] was 100%, the Activity [23] was 91% and the Activity [24] was 53%. The Activity [25] was 111%, the IC50 [26] was 860 nM and the Activity [27] was 113%.
